Columns and labels:
[1] = biological target: T1, Discoidin domain-containing receptor 2 (Homo sapiens) (UniProt Q16832); experiment: Residual activity of DDR2 at 1 uM by microplate scintillation counting
T1 sequence (whole entry): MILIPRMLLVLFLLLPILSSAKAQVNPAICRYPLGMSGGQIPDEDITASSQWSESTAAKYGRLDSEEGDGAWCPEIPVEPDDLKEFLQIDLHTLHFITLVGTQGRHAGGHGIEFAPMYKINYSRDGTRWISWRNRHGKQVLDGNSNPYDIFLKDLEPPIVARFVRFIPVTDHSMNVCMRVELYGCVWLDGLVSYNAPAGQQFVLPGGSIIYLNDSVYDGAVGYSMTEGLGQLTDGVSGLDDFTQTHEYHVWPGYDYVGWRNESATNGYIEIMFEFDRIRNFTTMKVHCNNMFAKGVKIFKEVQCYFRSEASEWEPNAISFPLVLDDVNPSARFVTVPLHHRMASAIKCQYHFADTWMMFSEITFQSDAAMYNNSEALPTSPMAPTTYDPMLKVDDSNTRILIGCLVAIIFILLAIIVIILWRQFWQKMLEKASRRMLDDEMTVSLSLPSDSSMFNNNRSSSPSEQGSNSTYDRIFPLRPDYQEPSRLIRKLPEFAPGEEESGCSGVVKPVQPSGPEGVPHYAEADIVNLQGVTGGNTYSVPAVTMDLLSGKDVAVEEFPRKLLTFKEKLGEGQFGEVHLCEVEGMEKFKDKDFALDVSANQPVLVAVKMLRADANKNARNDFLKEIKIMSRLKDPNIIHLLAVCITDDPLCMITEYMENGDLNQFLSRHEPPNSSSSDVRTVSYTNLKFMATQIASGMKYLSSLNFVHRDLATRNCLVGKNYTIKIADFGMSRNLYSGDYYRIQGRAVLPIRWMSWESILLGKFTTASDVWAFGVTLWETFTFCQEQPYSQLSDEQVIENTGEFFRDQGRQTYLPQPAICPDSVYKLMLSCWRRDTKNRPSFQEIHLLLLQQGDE

[2] = biological target: Tyrosine-protein kinase Lyn (Homo sapiens) (UniProt P07948); experiment: Residual activity of LYN at 0.1 uM by microplate scintillation counting
Chain of Tyrosine-protein kinase Lyn (Homo sapiens) (P07948 2-512 limits assumed): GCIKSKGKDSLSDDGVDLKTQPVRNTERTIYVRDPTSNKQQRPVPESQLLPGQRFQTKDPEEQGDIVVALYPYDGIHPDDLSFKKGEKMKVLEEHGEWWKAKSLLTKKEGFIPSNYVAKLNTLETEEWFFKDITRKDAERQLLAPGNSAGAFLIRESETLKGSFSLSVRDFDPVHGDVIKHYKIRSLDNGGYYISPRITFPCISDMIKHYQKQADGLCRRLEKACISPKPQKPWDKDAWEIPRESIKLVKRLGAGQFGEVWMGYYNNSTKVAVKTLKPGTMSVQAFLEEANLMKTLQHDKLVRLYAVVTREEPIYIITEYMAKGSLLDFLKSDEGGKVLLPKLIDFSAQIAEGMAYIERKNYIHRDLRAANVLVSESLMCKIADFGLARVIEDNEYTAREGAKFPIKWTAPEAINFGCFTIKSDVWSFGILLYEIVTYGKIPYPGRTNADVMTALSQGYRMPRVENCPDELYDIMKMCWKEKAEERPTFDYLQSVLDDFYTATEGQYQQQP

[3] = biological target: Myosin light chain kinase 2, skeletal/cardiac muscle (Homo sapiens) (UniProt Q9H1R3); experiment: Residual activity of MYLK2 at 0.1 uM by microplate scintillation counting
[4] = biological target: T2, Serine/threonine-protein kinase 17A (Homo sapiens) (UniProt Q9UEE5); experiment: Residual activity of STK17A at 1 uM by microplate scintillation counting
T2 sequence (whole entry): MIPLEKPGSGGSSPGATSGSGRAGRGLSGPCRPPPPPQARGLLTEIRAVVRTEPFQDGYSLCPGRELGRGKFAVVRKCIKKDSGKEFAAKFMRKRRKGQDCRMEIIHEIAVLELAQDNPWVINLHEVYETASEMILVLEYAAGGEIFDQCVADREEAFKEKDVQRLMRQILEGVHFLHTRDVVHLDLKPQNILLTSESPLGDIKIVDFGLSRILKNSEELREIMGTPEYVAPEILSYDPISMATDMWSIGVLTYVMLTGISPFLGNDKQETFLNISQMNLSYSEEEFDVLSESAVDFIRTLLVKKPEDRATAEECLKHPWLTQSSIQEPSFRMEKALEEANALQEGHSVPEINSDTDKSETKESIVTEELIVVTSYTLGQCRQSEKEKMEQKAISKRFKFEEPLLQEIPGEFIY

[5] = biological target: Fibroblast growth factor receptor 2 (Homo sapiens) (UniProt P21802); experiment: Residual activity of FGFR2 at 10 uM by microplate scintillation counting
Chain of Fibroblast growth factor receptor 2 (Homo sapiens) (P21802 22-821 limits assumed): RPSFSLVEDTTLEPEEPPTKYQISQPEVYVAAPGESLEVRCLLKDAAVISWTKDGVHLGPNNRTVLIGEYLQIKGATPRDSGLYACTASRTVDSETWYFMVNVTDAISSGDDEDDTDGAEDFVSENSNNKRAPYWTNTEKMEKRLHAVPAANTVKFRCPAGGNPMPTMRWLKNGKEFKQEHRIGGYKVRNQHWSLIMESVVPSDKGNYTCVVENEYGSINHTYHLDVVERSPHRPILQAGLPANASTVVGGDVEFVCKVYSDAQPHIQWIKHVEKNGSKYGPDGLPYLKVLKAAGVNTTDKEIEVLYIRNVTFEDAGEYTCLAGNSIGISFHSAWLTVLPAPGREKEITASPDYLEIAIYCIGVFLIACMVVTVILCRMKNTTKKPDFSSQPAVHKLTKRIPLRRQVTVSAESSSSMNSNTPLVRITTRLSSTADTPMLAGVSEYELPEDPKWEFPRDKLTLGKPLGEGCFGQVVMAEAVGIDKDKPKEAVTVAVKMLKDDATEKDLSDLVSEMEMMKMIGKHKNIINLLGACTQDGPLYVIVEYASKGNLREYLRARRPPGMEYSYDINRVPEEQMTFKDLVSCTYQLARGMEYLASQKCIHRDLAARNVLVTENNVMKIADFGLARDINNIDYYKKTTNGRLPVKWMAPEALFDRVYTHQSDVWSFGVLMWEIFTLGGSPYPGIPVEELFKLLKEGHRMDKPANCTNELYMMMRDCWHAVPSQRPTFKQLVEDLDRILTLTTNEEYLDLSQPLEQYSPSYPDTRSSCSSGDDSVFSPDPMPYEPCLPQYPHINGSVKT

[6] = biological target: RAC-beta serine/threonine-protein kinase (Homo sapiens) (UniProt P31751); experiment: Residual activity of AKT2 at 10 uM by microplate scintillation counting
Chain of RAC-beta serine/threonine-protein kinase (Homo sapiens) (P31751 whole entry): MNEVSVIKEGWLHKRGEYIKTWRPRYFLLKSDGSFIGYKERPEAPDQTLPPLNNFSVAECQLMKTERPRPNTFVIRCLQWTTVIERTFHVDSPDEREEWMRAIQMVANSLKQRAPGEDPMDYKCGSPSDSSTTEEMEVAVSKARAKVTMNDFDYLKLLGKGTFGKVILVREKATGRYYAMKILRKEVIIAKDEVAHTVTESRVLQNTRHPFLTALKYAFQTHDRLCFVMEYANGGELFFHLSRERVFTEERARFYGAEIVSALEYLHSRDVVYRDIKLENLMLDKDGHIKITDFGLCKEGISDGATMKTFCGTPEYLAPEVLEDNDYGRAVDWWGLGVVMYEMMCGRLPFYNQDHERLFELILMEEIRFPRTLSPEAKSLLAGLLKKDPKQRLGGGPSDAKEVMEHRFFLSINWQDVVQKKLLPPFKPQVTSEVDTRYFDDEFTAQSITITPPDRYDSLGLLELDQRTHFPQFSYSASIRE

[7] = biological target: RAC-beta serine/threonine-protein kinase (Homo sapiens) (UniProt P31751); experiment: Residual activity of AKT2 at 1 uM by microplate scintillation counting
[8] = biological target: RAC-gamma serine/threonine-protein kinase (Homo sapiens) (UniProt Q9Y243); experiment: Residual activity of AKT3 at 1 uM by microplate scintillation counting
Chain of RAC-gamma serine/threonine-protein kinase (Homo sapiens) (Q9Y243 whole entry): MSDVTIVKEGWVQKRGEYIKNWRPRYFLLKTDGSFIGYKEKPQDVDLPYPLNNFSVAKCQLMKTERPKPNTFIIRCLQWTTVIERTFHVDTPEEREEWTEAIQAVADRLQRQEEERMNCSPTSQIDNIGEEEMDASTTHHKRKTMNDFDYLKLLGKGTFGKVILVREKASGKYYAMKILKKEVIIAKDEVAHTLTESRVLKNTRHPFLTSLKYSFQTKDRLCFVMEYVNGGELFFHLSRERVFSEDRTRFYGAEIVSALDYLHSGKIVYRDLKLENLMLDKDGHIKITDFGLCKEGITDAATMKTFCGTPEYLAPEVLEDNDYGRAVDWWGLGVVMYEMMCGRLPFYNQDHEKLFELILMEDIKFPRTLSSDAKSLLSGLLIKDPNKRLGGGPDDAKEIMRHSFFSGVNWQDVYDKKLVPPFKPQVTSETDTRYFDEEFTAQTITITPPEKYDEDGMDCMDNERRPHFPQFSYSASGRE

[9] = biological target: Serine/threonine-protein kinase 26 (Homo sapiens) (UniProt Q9P289); experiment: Residual activity of MST4 at 10 uM by microplate scintillation counting
Chain of Serine/threonine-protein kinase 26 (Homo sapiens) (Q9P289 2-416 limits assumed): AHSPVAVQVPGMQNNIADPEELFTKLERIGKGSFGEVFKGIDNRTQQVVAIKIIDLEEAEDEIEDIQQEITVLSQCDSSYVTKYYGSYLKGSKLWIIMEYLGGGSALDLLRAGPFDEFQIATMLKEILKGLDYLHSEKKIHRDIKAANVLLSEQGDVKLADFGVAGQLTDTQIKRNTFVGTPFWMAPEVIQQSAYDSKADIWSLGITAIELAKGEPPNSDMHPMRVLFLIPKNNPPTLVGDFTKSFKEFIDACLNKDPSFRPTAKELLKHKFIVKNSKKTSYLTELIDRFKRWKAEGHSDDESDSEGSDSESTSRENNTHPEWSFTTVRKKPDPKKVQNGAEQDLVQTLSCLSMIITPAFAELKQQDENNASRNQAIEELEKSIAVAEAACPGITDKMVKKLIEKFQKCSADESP

[10] = biological target: T3, Calcium/calmodulin-dependent protein kinase type IV (Homo sapiens) (UniProt Q16566); experiment: Residual activity of CAMK4 at 1 uM by microplate scintillation counting
T3 sequence (whole entry): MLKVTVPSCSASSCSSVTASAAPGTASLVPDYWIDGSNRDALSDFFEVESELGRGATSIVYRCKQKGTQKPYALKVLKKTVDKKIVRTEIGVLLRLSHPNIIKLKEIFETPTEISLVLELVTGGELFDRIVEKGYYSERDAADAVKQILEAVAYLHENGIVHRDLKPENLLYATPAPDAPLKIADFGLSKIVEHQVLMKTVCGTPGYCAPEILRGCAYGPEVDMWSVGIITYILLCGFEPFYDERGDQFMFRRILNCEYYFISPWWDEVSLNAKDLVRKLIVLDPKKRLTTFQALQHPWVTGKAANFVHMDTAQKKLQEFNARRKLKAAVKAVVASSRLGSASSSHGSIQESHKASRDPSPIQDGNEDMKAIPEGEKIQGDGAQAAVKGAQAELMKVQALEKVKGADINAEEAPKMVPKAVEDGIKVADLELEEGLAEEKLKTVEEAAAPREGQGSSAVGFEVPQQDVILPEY

[11] = biological target: Casein kinase I isoform epsilon (Homo sapiens) (UniProt P49674); experiment: Residual activity of CK1epsilon at 0.1 uM by microplate scintillation counting
Chain of Casein kinase I isoform epsilon (Homo sapiens) (P49674 whole entry, looked up, canonical isoform): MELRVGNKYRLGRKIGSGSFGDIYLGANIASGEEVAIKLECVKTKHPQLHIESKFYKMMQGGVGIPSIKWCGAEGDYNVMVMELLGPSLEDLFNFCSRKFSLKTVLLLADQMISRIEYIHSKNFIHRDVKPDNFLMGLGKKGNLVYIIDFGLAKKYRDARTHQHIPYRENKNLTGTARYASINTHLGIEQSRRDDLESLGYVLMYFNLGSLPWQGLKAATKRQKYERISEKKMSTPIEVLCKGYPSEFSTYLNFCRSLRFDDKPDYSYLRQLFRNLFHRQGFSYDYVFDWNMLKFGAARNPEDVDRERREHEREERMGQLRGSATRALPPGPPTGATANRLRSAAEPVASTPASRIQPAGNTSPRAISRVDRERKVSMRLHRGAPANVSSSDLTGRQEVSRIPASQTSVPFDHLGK

[12] = biological target: Vascular endothelial growth factor receptor 3 (Homo sapiens, UniProt P35916); experiment: Residual activity of VEGFR3 at 10 uM by microplate scintillation counting
Chain of Vascular endothelial growth factor receptor 3 (P35916 whole entry): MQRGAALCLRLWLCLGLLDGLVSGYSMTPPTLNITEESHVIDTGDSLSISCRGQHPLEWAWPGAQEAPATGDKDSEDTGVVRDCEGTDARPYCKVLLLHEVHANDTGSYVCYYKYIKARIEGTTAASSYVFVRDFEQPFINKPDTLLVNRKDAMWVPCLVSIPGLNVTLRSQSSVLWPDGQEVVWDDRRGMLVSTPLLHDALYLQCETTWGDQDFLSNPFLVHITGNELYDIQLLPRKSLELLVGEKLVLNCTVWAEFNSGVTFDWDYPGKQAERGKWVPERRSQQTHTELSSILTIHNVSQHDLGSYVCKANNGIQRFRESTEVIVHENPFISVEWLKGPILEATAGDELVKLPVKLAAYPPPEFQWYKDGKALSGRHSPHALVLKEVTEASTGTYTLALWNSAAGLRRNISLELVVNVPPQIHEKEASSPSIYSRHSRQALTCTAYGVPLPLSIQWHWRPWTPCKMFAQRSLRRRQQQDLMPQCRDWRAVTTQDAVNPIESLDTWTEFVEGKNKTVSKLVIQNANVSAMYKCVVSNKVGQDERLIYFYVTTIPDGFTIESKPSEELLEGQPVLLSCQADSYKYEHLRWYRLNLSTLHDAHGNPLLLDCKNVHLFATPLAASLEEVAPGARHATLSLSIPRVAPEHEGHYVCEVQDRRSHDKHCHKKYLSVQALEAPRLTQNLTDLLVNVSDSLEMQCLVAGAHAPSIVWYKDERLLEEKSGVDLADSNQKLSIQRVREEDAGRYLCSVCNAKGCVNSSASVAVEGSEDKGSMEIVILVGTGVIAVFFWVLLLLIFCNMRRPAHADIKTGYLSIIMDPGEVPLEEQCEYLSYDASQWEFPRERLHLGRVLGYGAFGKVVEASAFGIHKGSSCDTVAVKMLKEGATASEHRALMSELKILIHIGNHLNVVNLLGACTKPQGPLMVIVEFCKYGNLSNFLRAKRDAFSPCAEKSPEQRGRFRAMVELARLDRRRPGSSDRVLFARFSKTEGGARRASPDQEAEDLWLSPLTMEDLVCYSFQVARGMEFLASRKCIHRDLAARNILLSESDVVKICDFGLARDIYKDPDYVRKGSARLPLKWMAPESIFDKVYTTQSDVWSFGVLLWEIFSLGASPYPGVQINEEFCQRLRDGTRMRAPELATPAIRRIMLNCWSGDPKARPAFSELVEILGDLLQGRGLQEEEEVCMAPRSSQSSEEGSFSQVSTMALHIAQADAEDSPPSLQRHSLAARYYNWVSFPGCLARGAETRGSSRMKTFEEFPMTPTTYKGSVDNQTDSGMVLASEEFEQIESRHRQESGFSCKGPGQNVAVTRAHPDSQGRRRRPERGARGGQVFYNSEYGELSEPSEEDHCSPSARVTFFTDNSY

residual activity [1] [%] | residual activity [2] [%] | residual activity [3] [%] | residual activity [4] [%] | residual activity [5] [%] | residual activity [6] [%] | residual activity [7] [%] | residual activity [8] [%] | residual activity [9] [%] | residual activity [10] [%] | residual activity [11] [%] | residual activity [12] [%] | SMILES
79 | 112 | 83 | 62 | 136 | 175 | 83 | 88 | 88 | 100 | 80 | 4 | COc1cc2c(Oc3ccc(-c4nc5ccccc5s4)cc3)ncnc2cc1OCCCN1CCN(C)CC1
88 | 102 | 93 | 90 | 86 | 167 | 113 | 89 | 76 | 103 | 79 | 4 | COc1cc2c(Oc3ccc(-c4nc5ccccc5s4)cc3F)ncnc2cc1OCCCN1CCN(C)CC1
99 | 108 | 33 | 67 | 113 | 119 | 91 | 98 | 85 | 97 | 89 | 6 | COc1cc2c(Oc3ccc(-c4nc5ccccc5s4)cc3)ncnc2cc1OCCCN1CCCC1

Source: ChEMBL document CHEMBL1152560, “Substituted 2-arylbenzothiazoles as kinase inhibitors: hit-to-lead optimization” (Bioorg Med Chem, 2009)
